Results on 4 molecules are retold here after paper PMC8812461, “Synthesis of New 3-Arylcoumarins Bearing N-Benzyl Triazole Moiety: Dual Lipoxygenase and Butyrylcholinesterase Inhibitors With Anti-Amyloid Aggregation and Neuroprotective Properties Against Alzheimer’s Disease” (Frontiers in Chemistry, 2022).

Like-named read-outs stand apart in the source and are kept apart here.

In data set [1] the test system is BV-2 cells. The data set can be described thus: Hydrogen peroxide cell-based assay (extracellular H2O2, amyloid β-induced). Also noted: species or system murine. Conditions: 10.0 μM compound 3 h before amyloid β1-40 (5.0 μM), 24 h. The procedure:
The BV-2 immortalized murine microglial cell line was cultured in a high-glucose Dulbecco’s modified Eagle medium (DMEM) without phenol red supplemented with 10% of FBS, %1 of L -glutamine, and 1% of penicillin–streptomycin solution. The cells were kept in a moistened atmosphere at 37°C. Quantitation of the extracellular H2O2 produced by the BV-2 cells was detected using the Oxiselect Sta-343 hydrogen peroxide assay according to the kit’s protocol. Briefly, the cells were seeded in a 384-well plate (1,000 cells/well) overnight in 50.0 μl/well of serum and phenol red free culture medium, then treated with 10.0 μM of the compounds for 3 h, prior to amyloid β1-40 treatment (5.0 μM) and incubated for 24 h. An amount of 25.0 μl of medium was collected and mixed with 250.0 μl aqueous working solution. The absorbance values at 595 nm of each well were measured using a BMG Labtech Omega FLUOstar microplate reader. BHT (butylated hydroxytoluene, Cell biolabs) was also tested as a reference antioxidant agent ([Datki et al., 2003]).

Data set [2] is described as follows: in vitro. The format is cell-based. Conditions: MTT, read-out: PC12 viability percent (cytotoxicity). The procedure:
The cytotoxic effect of the selected compounds (8l and 8n) on the PC12 cell line was evaluated by using the MTT-based colorimetric assay. First, the PC12 cell line was cultivated in DMEM culture medium, supplemented with fetal bovine serum (10%). […]. Thereafter, the culture medium of each well was replaced by 20 µl MTT solution (5.0 mg/ml) and incubated to form formazan crystals, followed by dissolving them in DMSO (100.0 µl) and recording the related absorbance at 570 nm using a Synergy 2 multimode plate reader (Biotek, Winooski, VT, United States). The viability percent was then calculated according to the control well, where no compound was added to the related well. The mentioned protocol was repeated in triplicates, and the mean ± SEM of the obtained results was reported.

Data set [3] deals with T1, 15-LOX (soybean lipoxygenase) (Glycine max, UniProt P08170).
T1 construct: purchased Merck or Aldrich
T1 sequence (P08170 1-839): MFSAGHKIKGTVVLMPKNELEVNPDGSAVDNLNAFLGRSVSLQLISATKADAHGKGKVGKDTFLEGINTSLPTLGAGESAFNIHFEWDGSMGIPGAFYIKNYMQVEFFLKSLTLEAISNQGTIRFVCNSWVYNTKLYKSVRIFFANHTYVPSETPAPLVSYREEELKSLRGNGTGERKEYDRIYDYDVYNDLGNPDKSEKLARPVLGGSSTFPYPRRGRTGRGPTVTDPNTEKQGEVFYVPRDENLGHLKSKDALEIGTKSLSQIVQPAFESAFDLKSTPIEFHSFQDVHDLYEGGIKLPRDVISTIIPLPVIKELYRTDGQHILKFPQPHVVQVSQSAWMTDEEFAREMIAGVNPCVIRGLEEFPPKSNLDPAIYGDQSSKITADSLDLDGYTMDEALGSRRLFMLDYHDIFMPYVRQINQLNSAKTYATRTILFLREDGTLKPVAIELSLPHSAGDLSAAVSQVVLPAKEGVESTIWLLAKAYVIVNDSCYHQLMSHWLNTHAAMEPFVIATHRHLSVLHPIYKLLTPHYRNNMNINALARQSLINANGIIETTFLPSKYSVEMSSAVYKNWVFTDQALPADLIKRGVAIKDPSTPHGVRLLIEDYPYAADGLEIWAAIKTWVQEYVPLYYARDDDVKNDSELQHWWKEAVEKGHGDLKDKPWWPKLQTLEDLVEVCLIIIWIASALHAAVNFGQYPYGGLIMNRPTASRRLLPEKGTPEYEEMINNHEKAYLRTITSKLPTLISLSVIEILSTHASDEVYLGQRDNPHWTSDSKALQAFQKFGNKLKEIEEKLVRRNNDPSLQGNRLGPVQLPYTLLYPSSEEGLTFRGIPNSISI
The data set can be described thus: Soybean 15-LOX inhibition assay. In kind it is biochemical. The procedure: A solution of the target compound was prepared in DMSO, and it was diluted with phosphate buffer (0.1 M, pH = 8.0).

The target of data set [4] is T2, BuChE (from equine serum) (Equus caballus, UniProt P81908).
T2 construct: BuChE from equine serum was employed for Ellman’s assay; purchased Merck or Aldrich; host or cells: equine serum
T2 sequence (P81908 whole entry): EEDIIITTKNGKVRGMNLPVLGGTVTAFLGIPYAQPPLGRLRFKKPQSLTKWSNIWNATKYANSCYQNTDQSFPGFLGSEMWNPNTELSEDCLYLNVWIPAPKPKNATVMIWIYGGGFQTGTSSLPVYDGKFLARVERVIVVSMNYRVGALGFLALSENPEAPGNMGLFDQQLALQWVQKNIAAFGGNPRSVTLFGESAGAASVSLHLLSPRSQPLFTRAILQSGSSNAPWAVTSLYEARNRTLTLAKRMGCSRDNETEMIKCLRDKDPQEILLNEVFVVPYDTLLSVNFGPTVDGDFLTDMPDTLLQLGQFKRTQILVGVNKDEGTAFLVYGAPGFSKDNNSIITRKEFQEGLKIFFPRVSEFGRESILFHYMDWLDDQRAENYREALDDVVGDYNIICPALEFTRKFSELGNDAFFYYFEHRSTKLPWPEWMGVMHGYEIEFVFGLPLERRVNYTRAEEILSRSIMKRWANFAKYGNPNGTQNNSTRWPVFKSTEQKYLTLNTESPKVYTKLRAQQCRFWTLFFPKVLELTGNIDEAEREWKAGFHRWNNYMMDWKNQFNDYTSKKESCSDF
The data set can be described thus: biochemical. The format is biochemical. Conditions: mean ± SEM of three experiments, read-out: eq BuChE IC50. The procedure: (§1) AChE from electrophorus electricus and BuChE from equine serum was employed for Ellman’s assay. Each compound (5.0 mg) was dissolved in 1.0 ml of DMSO. […] Briefly, a mixture of phosphate buffer (2.0 ml, 0.1 M, pH = 8.0), 60.0 µl of DTNB solution, and 20.0 µl of AChE/BuChE was prepared, and 30.0 µl of the test compounds in different concentrations were then added to the mixture. Next, a solution of the substrate (acetylthiocholine iodide/butyrylthiocholine iodide, 20.0 µl) was added to the mixture after 10 min incubation at 25°C. All experiments were performed in triplicates, and the temperature of all solutions was controlled to be maintained at 25°C. […] The blank solution was used to validate the non-enzymatic hydrolysis of the substrate during the assessment. The blank solution was prepared by a mixture of 2.0 ml of buffer, 30.0 μl of DMSO, 60.0 μl of DTNB, and 20.0 μl of substrate. The rate of the enzymatic hydrolysis of the substrate was calculated, and % inhibition of the compounds was determined. The half maximal inhibitory concentration (IC50) values were graphically determined from inhibition curves (logarithm of the concentration of the tested compound versus percent of the inhibition).

Data set [5] deals with T3, AChE (from electrophorus electricus) (Electrophorus electricus, UniProt O42275).
T3 construct: purchased Merck or Aldrich
T3 sequence (O42275 24-633): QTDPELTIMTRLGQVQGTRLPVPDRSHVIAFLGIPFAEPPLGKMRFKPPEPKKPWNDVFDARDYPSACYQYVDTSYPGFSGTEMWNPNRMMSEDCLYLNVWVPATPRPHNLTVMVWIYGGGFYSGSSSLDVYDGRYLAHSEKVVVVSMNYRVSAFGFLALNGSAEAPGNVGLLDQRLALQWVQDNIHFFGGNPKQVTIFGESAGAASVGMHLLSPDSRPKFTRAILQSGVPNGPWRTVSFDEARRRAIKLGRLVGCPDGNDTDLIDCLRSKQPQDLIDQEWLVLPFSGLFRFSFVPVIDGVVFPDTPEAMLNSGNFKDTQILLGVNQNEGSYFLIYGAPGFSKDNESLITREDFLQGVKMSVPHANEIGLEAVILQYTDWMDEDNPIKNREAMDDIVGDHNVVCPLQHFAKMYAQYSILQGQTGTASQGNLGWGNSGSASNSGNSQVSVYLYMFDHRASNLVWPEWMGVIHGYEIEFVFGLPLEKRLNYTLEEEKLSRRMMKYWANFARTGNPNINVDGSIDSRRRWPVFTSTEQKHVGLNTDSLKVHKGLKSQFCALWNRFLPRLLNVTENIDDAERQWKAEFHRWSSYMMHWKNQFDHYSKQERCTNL
The data set can be described thus: Cholinesterase inhibition assay (Ellman's method), AChE. In kind it is biochemical. Conditions: test concentration not given. The procedure:
as §1
(DTNB colorimetry detects thiols as they appear.)

Data set [6] concerns the target T4, Aβ1-42 (Homo sapiens, UniProt P05067).
T4 construct: was used to dissolve amyloid β1-40 (Sigma A1075); purchased Sigma A1075
The data set can be described thus: Self-induced Aβ1-42 aggregation (ThT assay). In kind it is biochemical. Conditions: for Self-induced Aβ aggregation inhibition relative to donepezil: 100.0 μM, versus donepezil; for Inhibition of self-induced Aβ1-42 aggregation: Aβ1-42 10.0 μM, compound 100.0 μM, ThT.

Data set [7] addresses T5, Aβ1-42 in the presence of AChE (Homo sapiens, UniProt P05067).
T5 construct: was used to dissolve amyloid β1-40 (Sigma A1075); purchased Sigma (Aβ); Merck or Aldrich (AChE) A1075 (Aβ)
The data set can be described thus: AChE-induced Aβ1-42 aggregation (ThT assay). As to conditions: compound 100.0 μM, AChE 0.01 u/ml. The format is biochemical.

Data set [8] concerns the target T6, BuChE (Equus caballus, UniProt P81908).
T6 construct: BuChE from equine serum was employed for Ellman’s assay; purchased Merck or Aldrich; host or cells: equine serum
The data set can be described thus: Kinetic study of BuChE inhibition (Lineweaver–Burk). In kind it is biochemical. As to conditions: secondary plot; inhibitor 0, 10.0, 20.0, 40.0 µM; read-out: Inhibitory constant (Ki) for BuChE. The procedure: Kinetics of the BuChE inhibition activity was studied for compound 8l at different inhibitor concentrations (0, 10.0, 20.0, and 40.0 µM) as mentioned in the ChE inhibition assay section. Different concentrations of the substrate (S) and butyrylthiocholine iodide (BuChI) were applied to obtain the initial velocity measurements, in each case. The reciprocal of the S (1/S) was plotted against the initial velocity (1/v) ([Rampa et al., 2000]). […] […]. Ellman’s method was utilized to assess anti-AChE/BuChE activity of the synthesized compounds ([Ellman et al., 1961]). AChE from electrophorus electricus and BuChE from equine serum was employed for Ellman’s assay. Each compound (5.0 mg) was dissolved in 1.0 ml of DMSO. […] Briefly, a mixture of phosphate buffer (2.0 ml, 0.1 M, pH = 8.0), 60.0 µl of DTNB solution, and 20.0 µl of AChE/BuChE was prepared, and 30.0 µl of the test compounds in different concentrations were then added to the mixture. […] The change in the absorbance wavelength of 412 nm was recorded for 1 min. […] The rate of the enzymatic hydrolysis of the substrate was calculated, and % inhibition of the compounds was determined. The half maximal inhibitory concentration (IC50) values were graphically determined from inhibition curves (logarithm of the concentration of the tested compound versus percent of the inhibition).

T4 sequence (P05067 672-711): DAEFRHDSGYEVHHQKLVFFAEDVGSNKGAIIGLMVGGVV
T5 sequence (P05067 672-711): as above
T6 sequence (P81908 whole entry): as the sequence (P81908 whole entry) above

As for `Cc1cc(C(C)(C)C)c(O)c(C(C)(C)C)c1` [BHT, butylated hydroxytoluene, reference compound], the “H2O2 level of BV-2 cells (% ± SEM of control)” value in data set [1] is on record as 114.4 ± 8.5 % of control.

Regarding `Nc1c2c(nc3ccccc13)CCCC2` [Tacrine, tacrine, reference compound], the viability (as a rule, a read-out of living cells in per cent, often relative to untreated cells) at 24 h, 50 µM in data set [2] is 67.3 ± 1.3%.

With `COc1cccc2cc(-c3ccc(OCc4cn(Cc5ccccc5)nn4)cc3)c(=O)oc12` [8n, 3-(4-((1-Benzyl-1H-1,2,3-triazol-4-yl)methoxy)phenyl)-8-methoxy-2H-chromen-2-one], 42.5 ± 1.7 µM corresponded to half-maximal inhibition in data set [3] (IC50). For the same molecule, the IC50 (commonly the concentration that gives 50% inhibition) in data set [4] came out at 45.1 ± 1.3 µM. Moreover, in data set [5], the “ee AChE %inhib.” value amounted to 49.9%. For the same molecule, in data set [2] (rat, PC12 cells), the viability at 24 h, 50 µM was 95.2 ± 1.1%. For the same molecule, in data set [6], the “Self-induced Aβ aggregation inhibition relative to donepezil” value was 1.79 times and the “Inhibition of self-induced Aβ1-42 aggregation” value is given as 76.2 ± 6.4%. The inhibition (in general, the change of the read-out against control, counted positive when it falls) at 100 µM in data set [7] amounted to 25.1 ± 8.7%. Also, the “H2O2 level of BV-2 cells (% ± SEM of control)” value in data set [1] was 122.4 ± 8.3 % of control.

In data set [3], `COc1cccc(Cn2cc(COc3ccc(-c4cc5ccccc5oc4=O)cc3)nn2)c1` [8l, 3-(4-((1-(3-Methoxybenzyl)-1H-1,2,3-triazol-4-yl)methoxy)phenyl)-2H-chromen-2-one] displayed an IC50 of 39.1 ± 1.1 µM. Besides, in data set [4], the IC50 stood at 19.5 ± 0.9 µM. In addition, the “ee AChE %inhib.” value in data set [5] is 16.5%. The viability at 24 h, 50 µM in data set [2] (rat, PC12 cells) amounted to 96.5 ± 0.9%. For the same molecule, in data set [6], the “Self-induced Aβ aggregation inhibition relative to donepezil” value was found to be 1.44 times and the “Inhibition of self-induced Aβ1-42 aggregation” value was 61.3 ± 4.8%. Also, the inhibition at 100 µM in data set [7] came out at 36.2 ± 6.1%. For the same molecule, in data set [1], the “H2O2 level of BV-2 cells (% ± SEM of control)” value is 97.6 ± 6.1 % of control. The Ki (commonly a dissociation constant, usually derived from enzyme kinetics or from competition with a known ligand) in data set [8] was 14.1 µM.
